Experimental data reported in patent US8105993B2, “Process compositions and production of acyl alkylisethionate compositions” (Huntsman Petrochemical LLC, priority 2006, dated 2012).

Key:
Zein = Zein irritation score (in vitro mildness); conditions: the lower the score, the more mild
Protocol: To evaluate the mildness of the products of the present invention, Zein scores were determined for a variety of sulfate and isethionate surfactants and their scores are reported in Table III:
The lower the Zein score, the more mild the composition.

[1] = levels of 10% by weight; cited from earlier work
[2] = Foaming test, one-liter capped rotating measuring cylinder foam machine; assay type: physicochemical; conditions: FIGS. 1A and 1B; 0.5% active of surfactant; compared with SLES or SLS based cleansers
Protocol: Foaming tests were performed using a one-liter capped rotating measuring cylinder foam machine at a rate of 30 revolutions per minute and ambient temperature ranging from about 20° C. to about 22° C. and at a concentration of 0.5% of total surfactants. Foam heights in the graduated cylinder were measured at the start and at 10 minutes of rotation. The results are shown below in Table I:
A second foaming test was performed using the same parameters as above, but a stripped coco fatty acid chain SCMI was tested in place of a whole coco fatty acid chain SCMI.

Compound | Zein Score (Zein) [mg N/100 ml solution] | skin and eye irritancy [1] | foam appearance [2]
sodium cocoyl isethionate [reference compound] | 254 | non-skin irritant and eye irritant | –
Sodium Lauroyl Ethyl Isethionate | 187 | – | –
CCCCCCCCCCCC(=O)OC(C)CS(=O)(=O)[O-].[Na+] (centres unmarked) [Sodium Lauroyl Methyl Isethionate] | 134 | – | –
sodium cocoyl methyl isethionate | 147 | – | tighter and creamier
Sodium Cocoyl Ethyl Isethionate | 104 | – | –
CCCCCCCCCCCCOS(=O)(=O)[O-].[Na+] [Sodium Lauryl Sulfate, sodium lauryl sulfate, reference compound] | 527 | – | –
